Literature values in patent US20220175673A1, “SURGICAL DEVICE” (Saint Anthony Biomedical, LLC, priority 2017, published 2022).

Tested on: Bacteroides, Propionibacterium, Clostridium deficile, Selenomonas
Details: some strains

In the case of `[H]/N=C(\N/C(=N/[H])NCCCCCCNC(=N)NC(=N)Nc1ccc(Cl)cc1)Nc1ccc(Cl)cc1` [Chlorhexidine, chlorhexidine], the activity is given as “active against some strains”.
